Reference: PubChem BioAssay AID220 (DTP/NCI, 2004)
“And” between values parts separate entries of the source, which are not always exact repeats. Equal entries are not always repeated. Records with an inconclusive call do not appear.

Test system: CD8F1 mice, subcutaneous mammary adenocarcinoma, T/C%
Assay: NCI In Vivo Anticancer Drug Screen. Data for tumor model Mammary Adenocarcinoma CD8F1 (subcutaneous) in CD8F1
Conditions: higher = larger tumour
Outline: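 Compound-treated versus vehicle-treated mice with transplantable tumors; survival or tumor size compared as T/C.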

[1] = endpoint: median tumor weight (est.), dose: 200.0 mg/kg/injection, schedule: Q07DX005 (ip), vehicle: Klucel (hydroxypropylcellulose) (HPC)

O=C1c2ccccc2C(=O)c2c(NCCNCCO)ccc(NCCNCCO)c21
T/C (endpoint: mean tumor weight, dose: 8.3 mg/kg/injection, schedule: Q07DX004 (ip), vehicle: Klucel (hydroxypropylcellulose) (HPC)): 60 % of control
T/C (endpoint: mean tumor weight, dose: 16.6 mg/kg/injection, schedule: Q07DX004 (ip), vehicle: Klucel (hydroxypropylcellulose) (HPC)): 81 % of control
T/C (endpoint: mean tumor weight, dose: 31.25 mg/kg/injection, schedule: Q07DX004 (ip), vehicle: Klucel (hydroxypropylcellulose) (HPC)): 25 % of control
T/C (endpoint: mean tumor weight, dose: 62.5 mg/kg/injection, schedule: Q07DX004 (ip), vehicle: Klucel (hydroxypropylcellulose) (HPC)): 59 % of control
T/C (endpoint: mean tumor weight, dose: 125.0 mg/kg/injection, schedule: Q07DX004 (ip), vehicle: Klucel (hydroxypropylcellulose) (HPC)): 37 % of control
T/C (endpoint: median tumor weight (est.), dose: 2.0 mg/kg/injection, schedule: Q07DX005 (ip), vehicle: saline): 74 % of control
T/C (endpoint: median tumor weight (est.), dose: 4.0 mg/kg/injection, schedule: Q04DX005 (ip), vehicle: water): 97 % of control
T/C (endpoint: median tumor weight (est.), dose: 4.0 mg/kg/injection, schedule: Q07DX004 (ip), vehicle: water): 74 % of control
T/C (endpoint: median tumor weight (est.), dose: 4.0 mg/kg/injection, schedule: Q07DX005 (ip), vehicle: saline): 92 % of control
T/C (endpoint: median tumor weight (est.), dose: 4.0 mg/kg/injection, schedule: Q07DX005 (ip), vehicle: water): 93 % of control
T/C (endpoint: median tumor weight (est.), dose: 8.0 mg/kg/injection, schedule: Q04DX005 (ip), vehicle: water): 62 % of control
T/C (endpoint: median tumor weight (est.), dose: 8.0 mg/kg/injection, schedule: Q07DX004 (ip), vehicle: water): 69 % of control
T/C (endpoint: median tumor weight (est.), dose: 8.0 mg/kg/injection, schedule: Q07DX005 (ip), vehicle: saline): 92 % of control
T/C (endpoint: median tumor weight (est.), dose: 15.63 mg/kg/injection, schedule: Q04DX005 (ip), vehicle: Klucel (hydroxypropylcellulose) (HPC)): 30 % of control
T/C (endpoint: median tumor weight (est.), dose: 15.63 mg/kg/injection, schedule: Q07DX004 (ip), vehicle: Klucel (hydroxypropylcellulose) (HPC)): 33 % of control
T/C (endpoint: median tumor weight (est.), dose: 16.0 mg/kg/injection, schedule: Q04DX005 (ip), vehicle: water): 66 % of control
T/C (endpoint: median tumor weight (est.), dose: 16.0 mg/kg/injection, schedule: Q07DX004 (ip), vehicle: water): 72 % of control
T/C (endpoint: median tumor weight (est.), dose: 16.0 mg/kg/injection, schedule: Q07DX005 (ip), vehicle: saline): 84 % of control
T/C (endpoint: median tumor weight (est.), dose: 16.12 mg/kg/injection, schedule: Q04DX005 (ip), vehicle: Klucel (hydroxypropylcellulose) (HPC)): 9 % of control
T/C (endpoint: median tumor weight (est.), dose: 16.12 mg/kg/injection, schedule: Q07DX004 (ip), vehicle: Klucel (hydroxypropylcellulose) (HPC)): 17 % of control
T/C (endpoint: median tumor weight (est.), dose: 31.25 mg/kg/injection, schedule: Q04DX005 (ip), vehicle: Klucel (hydroxypropylcellulose) (HPC)): 11 % of control
T/C (endpoint: median tumor weight (est.), dose: 32.0 mg/kg/injection, schedule: Q01DX001 (ip), vehicle: water): 63 % of control
T/C (endpoint: median tumor weight (est.), dose: 32.0 mg/kg/injection, schedule: Q04DX005 (ip), vehicle: water): 18 % of control
T/C (endpoint: median tumor weight (est.), dose: 32.0 mg/kg/injection, schedule: Q07DX004 (ip), vehicle: water): 44 % of control
T/C (endpoint: median tumor weight (est.), dose: 32.0 mg/kg/injection, schedule: Q07DX005 (ip), vehicle: saline): 56 % of control
T/C (endpoint: median tumor weight (est.), dose: 62.5 mg/kg/injection, schedule: Q07DX005 (ip), vehicle: Klucel (hydroxypropylcellulose) (HPC)): 10 % of control
T/C (endpoint: median tumor weight (est.), dose: 64.0 mg/kg/injection, schedule: Q07DX004 (ip), vehicle: water): 7 % of control
T/C (endpoint: median tumor weight (est.), dose: 64.0 mg/kg/injection, schedule: Q07DX005 (ip), vehicle: water): 19 % of control

Cc1c2ccccc2cc2cccc[n+]12
T/C (endpoint: median tumor weight change, dose: 20.0 mg/kg/injection, schedule: Q01DX001 (ip), vehicle: saline): 116 % of control
T/C (endpoint: median tumor weight change, dose: 25.0 mg/kg/injection, schedule: Q01DX001 (ip), vehicle: saline): 123 % of control
T/C (endpoint: median tumor weight change, dose: 40.0 mg/kg/injection, schedule: Q01DX001 (ip), vehicle: saline): 119 % of control
T/C (endpoint: median tumor weight change, dose: 50.0 mg/kg/injection, schedule: Q01DX001 (ip), vehicle: saline): 59 % of control

CC(O)CCC(=O)c1ccoc1 (stereo unspecified)
T/C (endpoint: median tumor weight change, dose: 3.32 mg/kg/injection, schedule: Q03HX003 (ip), vehicle: saline): 89 % of control
T/C (endpoint: median tumor weight change, dose: 6.65 mg/kg/injection, schedule: Q03HX003 (ip), vehicle: saline): 101 % of control

S=C=NCCc1ccccc1
T/C (endpoint: median tumor weight (est.), dose: 25.0 mg/kg/injection, schedule: Q07DX005 (ip), vehicle: saline with Tween-80): 120 % of control
T/C (endpoint: median tumor weight (est.), dose: 50.0 mg/kg/injection, schedule: Q07DX005 (ip), vehicle: saline with Tween-80): 111 % of control
T/C (endpoint: median tumor weight (est.), dose: 100.0 mg/kg/injection, schedule: Q07DX005 (ip), vehicle: saline with Tween-80): 53 % of control

CCCCCCCCNc1cc2c3c(c1)CCCN3CCC2
T/C (endpoint: median tumor weight (est.), dose: 0.75 mg/kg/injection, schedule: Q07DX005 (ip), vehicle: Klucel (hydroxypropylcellulose) (HPC)): 88 % of control
T/C (endpoint: median tumor weight (est.), dose: 1.5 mg/kg/injection, schedule: Q07DX005 (ip), vehicle: Klucel (hydroxypropylcellulose) (HPC)): 87 % of control
T/C (endpoint: median tumor weight (est.), dose: 3.0 mg/kg/injection, schedule: Q07DX005 (ip), vehicle: Klucel (hydroxypropylcellulose) (HPC)): 81 % of control
T/C (endpoint: median tumor weight (est.), dose: 6.0 mg/kg/injection, schedule: Q07DX005 (ip), vehicle: Klucel (hydroxypropylcellulose) (HPC)): 103 % of control

COc1ccc2c(NCCCCCCCCNc3c4ccccc4nc4cc(OC)ccc34)c3ccccc3nc2c1
T/C (endpoint: median tumor weight (est.), dose: 0.47 mg/kg/injection, schedule: Q07DX005 (ip), vehicle: other): 42 % of control
T/C (endpoint: median tumor weight (est.), dose: 0.94 mg/kg/injection, schedule: Q07DX005 (ip), vehicle: other): 63 % of control
T/C (endpoint: median tumor weight (est.), dose: 1.87 mg/kg/injection, schedule: Q07DX005 (ip), vehicle: other): 152 % of control
T/C (endpoint: median tumor weight (est.), dose: 1.88 mg/kg/injection, schedule: Q07DX005 (ip), vehicle: other): 50 % of control
T/C (endpoint: median tumor weight (est.), dose: 3.75 mg/kg/injection, schedule: Q07DX005 (ip), vehicle: other): 53 % of control
T/C (endpoint: median tumor weight (est.), dose: 7.5 mg/kg/injection, schedule: Q07DX005 (ip), vehicle: other): 36 % of control

Ic1ncnc2c1ncn2C1CCCO1 (stereo unspecified)
T/C (endpoint: median tumor weight (est.), dose: 25.0 mg/kg/injection, schedule: Q07DX005 (ip), vehicle: Klucel (hydroxypropylcellulose) (HPC)): 36 % of control
T/C [1]: 55 % of control and 64 % of control
T/C (endpoint: median tumor weight (est.), dose: 400.0 mg/kg/injection, schedule: Q07DX005 (ip), vehicle: Klucel (hydroxypropylcellulose) (HPC)): 41 % of control

CCC(=O)N(C)[C@@H](C)C(=O)O[C@H]1CC(=O)N(C)c2cc(cc(OC)c2Cl)C/C(C)=C/C=C[C@@H](OC)[C@@]2(O)C[C@H](OC(=O)N2)[C@@H](C)[C@@H]2O[C@@]12C
T/C (endpoint: median tumor weight (est.), dose: 7.5 micrograms/kg/injection, schedule: Q07DX005 (ip), vehicle: saline + alcohol): 210 % of control
T/C (endpoint: median tumor weight (est.), dose: 15.0 micrograms/kg/injection, schedule: Q07DX005 (ip), vehicle: saline + alcohol): 112 % of control
T/C (endpoint: median tumor weight (est.), dose: 30.0 micrograms/kg/injection, schedule: Q07DX005 (ip), vehicle: saline + alcohol): 84 % of control
T/C (endpoint: median tumor weight (est.), dose: 60.0 micrograms/kg/injection, schedule: Q07DX005 (ip), vehicle: saline + alcohol): 98 % of control

O=c1[nH]cnc2c1ccn2C1OC(CO)C(O)C1O (stereo unspecified)
T/C (endpoint: median tumor weight change, dose: 24.0 mg/kg/injection, schedule: Q01DX001 (ip), vehicle: saline): 74 % of control
T/C (endpoint: median tumor weight change, dose: 48.0 mg/kg/injection, schedule: Q01DX001 (ip), vehicle: saline): 62 % of control

O=C1N[C@H]2[C@H](O)[C@H](O)[C@@H](O)[C@H](O)[C@@H]2c2cc3c(c(O)c21)OCO3
T/C (endpoint: median tumor weight change, dose: 1.25 mg/kg/injection, schedule: Q01DX005 (ip), vehicle: saline + alcohol): 110 % of control
T/C (endpoint: median tumor weight change, dose: 2.5 mg/kg/injection, schedule: Q01DX005 (ip), vehicle: saline + alcohol): 66 % of control
T/C (endpoint: median tumor weight change, dose: 5.0 mg/kg/injection, schedule: Q01DX005 (ip), vehicle: saline + alcohol): 48 % of control

COc1c(CNC(=O)CCl)cc2[nH]c(C)cc2c1CNC(=O)CCl
T/C (endpoint: median tumor weight (est.), dose: 6.25 mg/kg/injection, schedule: Q07DX005 (ip), vehicle: Klucel (hydroxypropylcellulose) (HPC)): 92 % of control
T/C (endpoint: median tumor weight (est.), dose: 12.5 mg/kg/injection, schedule: Q07DX005 (ip), vehicle: Klucel (hydroxypropylcellulose) (HPC)): 67 % of control
T/C (endpoint: median tumor weight (est.), dose: 50.0 mg/kg/injection, schedule: Q07DX005 (ip), vehicle: Klucel (hydroxypropylcellulose) (HPC)): 97 % of control
T/C (endpoint: median tumor weight (est.), dose: 100.0 mg/kg/injection, schedule: Q07DX005 (ip), vehicle: Klucel (hydroxypropylcellulose) (HPC)): 55 % of control
T/C [1]: 57 % of control
T/C (endpoint: median tumor weight change, dose: 125.0 mg/kg/injection, schedule: Q01DX001 (ip), vehicle: Klucel (hydroxypropylcellulose) (HPC)): 106 % of control
T/C (endpoint: median tumor weight change, dose: 250.0 mg/kg/injection, schedule: Q01DX001 (ip), vehicle: Klucel (hydroxypropylcellulose) (HPC)): 108 % of control
